Measurements: ChEMBL document CHEMBL5338738, “Discovery of Novel Sesquiterpene Lactone Derivatives as Potent PKM2 Activators for the Treatment of Ulcerative Colitis” (J Med Chem, 2023)
Activity calls are given as the source filed them. No cut-off for these calls is given here.

Columns and labels:
CD4+ve Th [1] = assay: Inhibition of Th17 cells differentiation in anti-CD3/CD28 stimulated C57BL/6 mouse mesenteric lymph node CD4+ve Th cells assessed as downregulation of IL17a mRNA expression level at 0.1 to 3 uM incubated for 96 hrs in presence of recombinant human TGF-beta, recombinant mouse IL-6 and recombinant mouse IL-23 by qPCR analysis; assay type: functional, cell-based; details: dose 0.1-3 µM
CD4+ve Th [2] = assay: Inhibition of Th17 cells differentiation in anti-CD3/CD28 stimulated C57BL/6 mouse mesenteric lymph node CD4+ve Th cells assessed as increase in PKM2 tetramer formation at 0.1 to 3 uM incubated for 96 hrs in presence of recombinant human TGF-beta, recombinant mouse IL-6 and recombinant mouse IL-23 by Western blot analysis; assay type: functional, cell-based; details: dose 0.1-3 µM
Mus musculus [3] = assay: Anti-colitis activity against TNBS-induced ulcerative colitis BALB/c mouse model assessed as decrease in mucosal damage in colon at 12.5 to 25 mg/kg, po for consecutive 7 days by H and E staining based microscopy; assay type: functional, organism-based; details: dose 12.5-25 mg/kg, time 7.0 day
CD4+ve Th [4] = assay: Inhibition of Th17 cells differentiation in anti-CD3/CD28 stimulated C57BL/6 mouse mesenteric lymph node CD4+ve Th cells assessed as decrease in total PKM2 expression at 0.1 to 3 uM incubated for 96 hrs in presence of recombinant human TGF-beta, recombinant mouse IL-6 and recombinant mouse IL-23 by Western blot analysis; assay type: functional, cell-based; details: dose 0.1-3 µM
[5] = AUCt in Sprague-Dawley rat at 75 mg/kg,po and measured upto 24 hrs by LC-MS/MS analysis; assay type: ADME, organism-based; design: time < 24 hrs, dose 75 mg/kg, route po; details: in vivo
[6] = Half life in Sprague-Dawley rat at 75 mg/kg,po and measured upto 24 hrs by LC-MS/MS analysis; assay type: ADME, organism-based; details: in vivo
CD4+ve Th [7] = assay: Inhibition of Treg cells differentiation in anti-CD3/CD28 stimulated C57BL/6 mouse mesenteric lymph node CD4+ve Th cells assessed as change in Foxp3 mRNA expression level cells at 0.1 to 3 uM incubated for 96 hrs in presence of recombinant human TGF-beta by qPCR analysis; assay type: functional, cell-based; details: dose 0.1-3 µM
[8] = AUCt in Sprague-Dawley rat at 8 mg/kg,iv and measured upto 24 hrs by LC-MS/MS analysis; assay type: ADME, organism-based; design: time < 24 hrs, dose 8 mg/kg, route iv; details: in vivo
[9] = MRT(t) in Sprague-Dawley rat at 8 mg/kg,iv and measured upto 24 hrs by LC-MS/MS analysis; assay type: ADME, organism-based; details: in vivo
CD4+ve Th [10] = assay: Inhibition of Th17 cells differentiation in anti-CD3/CD28 stimulated C57BL/6 mouse mesenteric lymph node CD4+ve Th cells assessed as downregulation of IL21 mRNA expression level at 0.1 to 3 uM incubated for 96 hrs in presence of recombinant human TGF-beta, recombinant mouse IL-6 and recombinant mouse IL-23 by qPCR analysis; assay type: functional, cell-based; details: dose 0.1-3 µM
Mus musculus [11] = assay: Anti-colitis activity against DSS-induced ulcerative colitis C57BL/6 mouse model assessed as downregulation of RORC mRNA expression level in colon at 12.5 to 25 mg/kg, po for 10 days consecutively by qPCR assay; assay type: functional, organism-based; details: dose 12.5-25 mg/kg, time 10.0 day
Pyruvate kinase PKM [12] = target: T1, Pyruvate kinase PKM (Homo sapiens, UniProt P14618); assay: Activation of PKM2 (unknown origin) incubated for 30 mins
Target sequence in this assay (P14618 whole entry): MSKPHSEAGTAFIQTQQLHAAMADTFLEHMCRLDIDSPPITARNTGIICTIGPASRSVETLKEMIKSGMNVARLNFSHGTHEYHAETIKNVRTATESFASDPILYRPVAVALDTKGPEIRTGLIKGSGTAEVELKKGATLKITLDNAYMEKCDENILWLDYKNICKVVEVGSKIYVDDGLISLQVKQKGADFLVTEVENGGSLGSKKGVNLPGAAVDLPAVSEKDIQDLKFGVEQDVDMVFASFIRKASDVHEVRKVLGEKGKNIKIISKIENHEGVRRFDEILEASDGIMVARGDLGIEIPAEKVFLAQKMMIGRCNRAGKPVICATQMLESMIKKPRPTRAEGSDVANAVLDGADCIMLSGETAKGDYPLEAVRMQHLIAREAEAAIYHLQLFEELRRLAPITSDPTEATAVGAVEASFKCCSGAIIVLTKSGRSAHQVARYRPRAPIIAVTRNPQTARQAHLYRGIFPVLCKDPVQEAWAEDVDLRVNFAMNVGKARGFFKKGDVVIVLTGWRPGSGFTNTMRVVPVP

[13] = Toxicity in C57BL/6 mouse assessed as histological change in heart at 6.25 to 25 mg/kg, po for 10 days consecutively by H and E staining based microscopy; assay type: organism-based; details: in vivo, 240 h, dose 6.25-25 mg/kg, time 10 day
CD4+ve Th [14] = assay: Inhibition of aerobic glycolysis in anti-CD3/CD28 stimulated C57BL/6 mouse mesenteric lymph node CD4+ve Th cells assessed as reduction in glucose uptake level at 0.3 to 3 uM incubated for 96 hrs in presence of recombinant human TGF-beta, recombinant mouse IL-6 and recombinant mouse IL-23 by NBDG staining based immunofluorescence analysis; assay type: functional, cell-based; details: dose 0.3-3 µM
[15] = Microsomal stability in rat liver microsomes assessed as intrinsic clearance; assay type: ADME, Microsome; details: read-out: CLH
CD4+ve Th [16] = assay: Inhibition of aerobic glycolysis in anti-CD3/CD28 stimulated C57BL/6 mouse mesenteric lymph node CD4+ve Th cells assessed as reduction in glucose utilization by measuring glucose level at 0.3 to 3 uM incubated for 96 hrs in presence of recombinant human TGF-beta, recombinant mouse IL-6 and recombinant mouse IL-23 by colorimetric analysis; assay type: functional, cell-based; details: dose 0.3-3 µM
[17] = Toxicity in C57BL/6 mouse assessed as histological change in liver at 6.25 to 25 mg/kg, po for 10 days consecutively by H and E staining based microscopy; assay type: organism-based; details: in vivo, 240 h, dose 6.25-25 mg/kg, time 10 day
[18] = Tmax in Sprague-Dawley rat at 8 mg/kg,iv and measured upto 24 hrs by LC-MS/MS analysis; assay type: ADME, organism-based; details: in vivo
[19] = Toxicity in C57BL/6 mouse assessed as histological change in kidney at 6.25 to 25 mg/kg, po for 10 days consecutively by H and E staining based microscopy; assay type: organism-based; details: in vivo, 240 h, dose 6.25-25 mg/kg, time 10 day
Mus musculus [20] = assay: Anti-colitis activity against DSS-induced ulcerative colitis C57BL/6 mouse model assessed as decrease in IL-6 mRNA expression level in colon at 12.5 to 25 mg/kg, po for 10 days consecutively by qPCR analysis; assay type: functional, organism-based; details: dose 12.5-25 mg/kg, time 10.0 day
CD4+ve Th [21] = assay: Inhibition of aerobic glycolysis in anti-CD3/CD28 stimulated C57BL/6 mouse mesenteric lymph node CD4+ve Th cells assessed as downregulation of Glut1 mRNA expression level at 0.3 to 3 uM incubated for 96 hrs in presence of recombinant human TGF-beta, recombinant mouse IL-6 and recombinant mouse IL-23 by qPCR analysis; assay type: functional, cell-based; details: dose 0.3-3 µM
Mus musculus [22] = assay: Anti-colitis activity against DSS-induced ulcerative colitis C57BL/6 mouse model assessed as decrease in IL-1beta mRNA expression level in colon at 12.5 to 25 mg/kg, po for 10 days consecutively by qPCR analysis; assay type: functional, organism-based; details: dose 12.5-25 mg/kg, time 10.0 day
Mus musculus [23] = assay: Anti-colitis activity against DSS-induced ulcerative colitis C57BL/6 mouse model assessed as downregulation of RORC mRNA expression level in spleen at 12.5 to 25 mg/kg, po for 10 days consecutively by qPCR assay; assay type: functional, organism-based; details: dose 12.5-25 mg/kg, time 10.0 day
Mus musculus [24] = assay: Anti-colitis activity against DSS-induced ulcerative colitis C57BL/6 mouse model assessed as reduction in spleen index at 12.5 to 25 mg/kg, po for 10 days consecutively; assay type: functional, organism-based; details: dose 12.5-25 mg/kg, time 10.0 day
Pyruvate kinase PKM [25] = target: T1, Pyruvate kinase PKM; assay: Covalent binding affinity to recombinant human PKM2 at Cys424 residue at 20 uM incubated for 120 mins by LC-MS/MS analysis; details: filed as activator
Target sequence in this assay (P14618 2-531 limits assumed): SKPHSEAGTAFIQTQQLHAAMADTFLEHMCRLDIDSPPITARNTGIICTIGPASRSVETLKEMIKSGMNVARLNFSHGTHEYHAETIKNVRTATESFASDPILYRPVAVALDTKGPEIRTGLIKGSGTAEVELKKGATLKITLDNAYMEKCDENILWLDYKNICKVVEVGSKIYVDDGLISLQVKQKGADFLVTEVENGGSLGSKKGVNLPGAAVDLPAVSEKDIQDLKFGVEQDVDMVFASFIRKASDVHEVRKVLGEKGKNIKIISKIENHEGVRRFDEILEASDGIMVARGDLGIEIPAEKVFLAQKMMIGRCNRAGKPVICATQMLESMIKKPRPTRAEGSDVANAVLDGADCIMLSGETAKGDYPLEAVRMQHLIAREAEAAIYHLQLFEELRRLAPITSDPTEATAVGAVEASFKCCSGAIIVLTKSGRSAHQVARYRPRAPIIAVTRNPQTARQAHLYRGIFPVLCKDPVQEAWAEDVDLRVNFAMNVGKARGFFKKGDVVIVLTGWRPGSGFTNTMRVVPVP

CD4+ve Th [26] = assay: Inhibition of aerobic glycolysis in anti-CD3/CD28 stimulated C57BL/6 mouse mesenteric lymph node CD4+ve Th cells assessed as downregulation of Hk2 mRNA expression level at 0.3 to 3 uM incubated for 96 hrs in presence of recombinant human TGF-beta, recombinant mouse IL-6 and recombinant mouse IL-23 by qPCR analysis; assay type: functional, cell-based; details: dose 0.3-3 µM
Mus musculus [27] = assay: Anti-colitis activity against DSS-induced ulcerative colitis C57BL/6 mouse model assessed as downregulation of IL17a mRNA expression level in spleen at 12.5 to 25 mg/kg, po for 10 days consecutively by qPCR assay; assay type: functional, organism-based; details: dose 12.5-25 mg/kg, time 10.0 day
Mus musculus [28] = assay: Anti-colitis activity against DSS-induced ulcerative colitis C57BL/6 mouse model assessed as increase in colon length at 12.5 to 25 mg/kg, po for 10 days consecutively; assay type: functional, organism-based; details: dose 12.5-25 mg/kg, time 10.0 day

## C=C1C(=O)O[C@H]2[C@H]1CC[C@@]1(C)[C@@H](CC[C@@]3(C)O[C@@H]23)C1(F)F
CD4+ve Th [1]
  inhibition: Active
CD4+ve Th [2]
  inhibition: Active
Mus musculus [3]
  Activity: Active
CD4+ve Th [4]
  inhibition: Active
[5]
  AUC(0-t) at 24 h: 322 ng·h/mL
[6]
  half-life: 8 h
CD4+ve Th [7]
  inhibition: inactive
[8]
  AUC(0-t) at 24 h: 1230 ng·h/mL
[9]
  MRT last at 24 h: 5 h
CD4+ve Th [10]
  inhibition: Active
Mus musculus [11]
  Activity: Active
Pyruvate kinase PKM [12]
  EC50: 202 nM
[13]
  Activity: Non-Toxic
CD4+ve Th [14]
  inhibition: Active
[15]
  microsomal CLint: 110 µL/min/mg
CD4+ve Th [16]
  inhibition: Active
[17]
  Activity: Non-Toxic
[18]
  Tmax: 4.98 min
[19]
  Activity: Non-Toxic
Mus musculus [20]
  Activity: Active
CD4+ve Th [21]
  inhibition: Active
Mus musculus [22]
  Activity: Active
Mus musculus [23]
  Activity: Active
Mus musculus [24]
  Activity: Active
Pyruvate kinase PKM [25]
  Activity: Active
CD4+ve Th [26]
  inhibition: Active
Mus musculus [27]
  Activity: Active
Mus musculus [28]
  Activity: Active
